Tested on: Nanog promoter, Sox2 promoter, Lin28 promoter, Oct4 promoter
Experiment: Luciferase assay in the screening device (cells stably carrying pStable promoter-Luc reporter plasmids)
Format: cell-based, mouse
Conditions: 2 mM VPA, reacted with cells for 24 hours, "24 hr cell"; C2C12 / P19 stable clones
Protocol: The screening is performed after the cells that express various promoters stably being prepared. […] The reporter plasmids whose backbone is constructed by the method mentioned above are transinfected individually into different dishes of host cells. After the reporter plasmids have been introduced into C2C12 or P19 cells, use G418 (Geneticin), a selective antibiotic for Neomycin resistance gene, to screen positive clones because pStable clones carry Neomycin resistance gene. After cell culture, transinfection, stable clone selection, and cells growing as colonies, stable clones in which various different promoters are expressed are obtained. In an embodiment of the present invention, pStable-Nanog-p-Luc plasmid, pStable-Sox2-p-Luc plasmid, pStable-Lin28-p-Luc plasmid and pStable-Oct4-p-Luc plasmid are introduced into both a C2C12 cell line and a P19 cell line. […] The C2C12 cell and P19 cell are cultured in an incubator under normal growth conditions (typically at 37° C., 5% CO2, and saturated humidity). Culture conditions of C2C12 cells and P19 cells are listed in the following list one: After the transfection processes, perform stable clone selection. The transfected cells are cultured in a culture medium containing 800 ug/ml G418. […] In an embodiment of the present invention, harvest cells after cells being reacted with 2 mM VPA for 24 hours and measure luminescence expression of cells. […]

CCCC(CCC)C(=O)O [VPA, valporic acid]
level of Luciferase (luminescence expression): higher level of Luciferase

Reference: patent US20130004959A1, “SCREENING DEVICE CONTAINING NANOG PROMOTER, SOX2 PROMOTER, LIN 28 PROMOTER, OCT4 PROMOTER AND LUCIFERASE GENE AND SCREENING METHOD THEREOF” (NATIONAL CENTRAL UNIVERSITY, priority 2011, published 2013)
